Laboratory results from the supplement of paper PMC13380429.

Key:
Conditions in all cases: 72 h
Calu-3 [1] = assay: cell viability relative to DMSO; higher = less toxic
HepG2 [2] = assay: as above
Caco-2 [3] = assay: as above
Vero E6 [4] = assay: as above
Calu-3 [5] = assay: relative viability EC50 (midpoint between 100% and the lowest measured viability); higher = less toxic
HepG2 [6] = assay: as above
Caco-2 [7] = assay: as above
Vero E6 [8] = assay: as above
Calu-3 [9] = assay: drug sensitivity score (DSS) for viability; higher = more toxic; extreme values may be limits of the assay
HepG2 [10] = assay: as above
Caco-2 [11] = assay: as above
Vero E6 [12] = assay: as above
U2OS [13] = assay: cell viability relative to DMSO; higher = less toxic
U2OS [14] = assay: relative viability EC50 (midpoint between 100% and the lowest measured viability); higher = less toxic
U2OS [15] = assay: drug sensitivity score (DSS) for viability; higher = more toxic; extreme values may be limits of the assay

SMILES | cell viability (Calu-3 [1]; 1 nM) | cell viability (Calu-3 [1]; 10 nM) | cell viability (Calu-3 [1]; 100 nM) | cell viability (Calu-3 [1]; 1000 nM) | cell viability (Calu-3 [1]; 10000 nM) | cell viability (HepG2 [2]; 1 nM) | cell viability (HepG2 [2]; 10 nM) | cell viability (HepG2 [2]; 100 nM) | cell viability (HepG2 [2]; 1000 nM) | cell viability (HepG2 [2]; 10000 nM) | cell viability (Caco-2 [3]; 1 nM) | cell viability (Caco-2 [3]; 10 nM) | cell viability (Caco-2 [3]; 100 nM) | cell viability (Caco-2 [3]; 1000 nM) | cell viability (Caco-2 [3]; 10000 nM) | cell viability (Vero E6 [4]; 1 nM) | cell viability (Vero E6 [4]; 10 nM) | cell viability (Vero E6 [4]; 100 nM) | cell viability (Vero E6 [4]; 1000 nM) | cell viability (Vero E6 [4]; 10000 nM) | relative viability EC50 (Calu-3 [5]) | relative viability EC50 (HepG2 [6]) | relative viability EC50 (Caco-2 [7]) | relative viability EC50 (Vero E6 [8]) | drug sensitivity score (Calu-3 [9]) | drug sensitivity score (HepG2 [10]) | drug sensitivity score (Caco-2 [11]) | drug sensitivity score (Vero E6 [12]) | cell viability (U2OS [13]; 1 nM) | cell viability (U2OS [13]; 10 nM) | cell viability (U2OS [13]; 100 nM) | cell viability (U2OS [13]; 1000 nM) | cell viability (U2OS [13]; 10000 nM) | relative viability EC50 (U2OS [14]) | drug sensitivity score (U2OS [15])
CCCC(C)NC(=O)c1ccc(Cl)c(Cl)c1 (centres undefined) | 103% | 77.1% | 99% | 77.4% | 104% | 97.1% | 104% | 92.8% | 98% | 98.6% | 120% | 98% | 104% | 117% | 94.5% | 104% | 101% | 99.3% | 103% | 99.8% | > 10 µM | > 10 µM | > 10 µM | > 10 µM | 0 | 0 | 0 | 0 |  |  |  |  |  |  | 
CCc1cncnc1N1CCN(Cc2nc3cc(C(F)(F)F)ccc3[nH]2)CC1 | 80.8% | 101% | 84.2% | 89.9% | 88.2% | 97.6% | 103% | 103% | 92.4% | 34.8% | 93.2% | 109% | 99% | 98.5% | 61.8% | 99.5% | 104% | 101% | 101% | 89.9% | > 10 µM | 2.21 µM |  | > 10 µM | 1.1 | 4.8 | 2.1 | 0 | 96.6% | 101% | 98.5% | 97.7% | 79.9% | > 10 µM | 0.9
COc1ccc(CC2NCCc3c2[nH]c2ccc(C)cc32)c(Cl)c1OC (centres undefined) | 101% | 95.9% | 92.9% | 102% | 66.8% | 103% | 90.2% | 108% | 104% | 91.7% | 94.8% | 98.2% | 105% | 102% | 87.9% | 99% | 93.2% | 101% | 89.1% | 76.5% |  | > 10 µM | > 10 µM | > 10 µM | 1.3 | 0 | 0 | 2.1 | 95.4% | 101% | 98.3% | 101% | 94% | > 10 µM | 0
C[C@@H](CN1CCC(n2c(=O)[nH]c3cc(Cl)ccc32)CC1)NC(=O)c1ccc2ccccc2c1 | 102% | 99.7% | 96.2% | 94.2% | 82.1% | 99.9% | 102% | 85.6% | 94.1% | 82.9% | 93.8% | 105% | 101% | 97.4% | 79.5% |  |  |  |  |  | > 10 µM | > 10 µM | > 10 µM |  | 0.7 | 0.9 | 1 |  | 106% | 102% | 100% | 98.1% | 91.1% | > 10 µM | 0
C[C@H](NC(=O)c1sccc1OCc1ccc(Cl)cc1)c1ccccc1 | 102% | 96% | 99.6% | 107% | 98.1% | 104% | 108% | 105% | 103% | 75.8% | 97.9% | 103% | 104% | 97% | 67.7% | 113% | 107% | 108% | 100% | 96.8% | > 10 µM | > 10 µM |  | > 10 µM | 0 | 0.7 | 1.9 | 0 | 92.3% | 103% | 98.7% | 99.9% | 88.6% | > 10 µM | 0
O=C(Nc1ccc(CN2CCOCC2)cc1)c1ccc(-c2cccc(Cl)c2)o1 | 98.3% | 95.4% | 97.3% | 97.8% | 91% | 107% | 104% | 97.8% | 93.7% | 99.5% | 110% | 102% | 99.9% | 104% | 95.7% | 100% | 100% | 102% | 99.4% | 102% | > 10 µM | > 10 µM | > 10 µM | > 10 µM | 0 | 0 | 0 | 0 |  |  |  |  |  |  | 
Cc1noc(C)c1-c1ccc(-c2cc(C(N)=O)c(NC(N)=O)s2)c(O[C@H]2CCNC2)c1 [AZD3264] | 97.4% | 95.7% | 103% | 101% | 105% | 114% | 97.6% | 99.8% | 101% | 99.4% | 95.7% | 100% | 100% | 103% | 106% | 102% | 104% | 105% | 97.4% | 103% | > 10 µM | > 10 µM | > 10 µM | > 10 µM | 0 | 0 | 0 | 0 |  |  |  |  |  |  | 
